Data set [1] relates to C. elegans wild type Bristol N2. In words: Life span assay in C. elegans. It is filed as in vivo, Caenorhabditis elegans. As to conditions: ANM 10 μM or RES 438 μM alone, compared to the control. As to the method: The wild type Bristol N2 strain was used in this study. C. elegans and Escherichia coli OP50 strain were obtained from the Caenorhabditis Genetic Center, University of Minnesota (Minneapolis-St. Paul, MN). Worms were maintained at 20°C on nematode growth medium (NGM). Hatched worms (L1-stage larvae) were transferred to fresh agar plates and cultured with E. coli OP50 as a food source until they reached the L4 larvae stage. Synchronization of worm cultures was achieved by hypochlorite treatment of gravid hermaphrodites. […] Control worms were treated with 0.1% DMSO. All worms were kept 20°C to develop adulthood. Surviving and dead animals were counted daily (starting from the first day of adulthood) until all worms had died. […] Worms suffering from internal hatch (a defect in egg-laying) and those that crawled off the NGM plate were not included in the life-span assay. During the reproductive period, adult worms were transferred to fresh NGM plates every and then every other day thereafter. Life span assay result was obtained from three independent assays.

In data set [2] the test system is HUVECs. In words: Cell viability of HUVECs (MTT assay). Format: cell-based, human. Particulars: ANM 10 μM or RES 5 μM for 48 h. As to the method:
Human normal dermal fibroblasts ([…]) and human umbilical vein endothelial cells (HUVECs) were obtained from the Bioresource Collection and Research Center (BCRC), Hsinchu, Taiwan. […] Likewise, HUVECs were grown in M-199 medium supplemented with ECGS, heparin, 10% FBS and 100 U/mL penicillin and streptomycin at 37°C in a fully humidified atmosphere of 5% CO2. High-glucose treatment was performed by treating cells with 15 or 30 mM D-glucose (HG) for 24-72 h. […] Cell viability was assessed by MTT colorimetric assay. […] After treatment with HG (15 and 30 mM) in the presence or absence of samples for 24-72 h, culture media was withdrawn and incubated with MTT (1 mg/mL) in fresh medium for 2 h. The MTT formazan crystals were dissolved in 400 μL of DMSO and the samples were measured at 570 nm […] using an ELISA microplate reader (Bio-Tek Instruments, Winooski, VT). The percentage of cell viability (%) was calculated as (A570 of treated cells/A570 of untreated cells) × 100.
Background: Tetrazolium dyes change colour on reduction, which living cells bring about.

On to `Oc1ccc(/C=C/c2cc(O)cc(O)c2)cc1` [RES, resveratrol, reference compound], for which the “life span of C. elegans under normal condition” value in data set [1] was “highly comparable”. Further, in data set [2], the “cell viability of HUVECs, treatment alone” value is given as “did not affect cell viability”.

The values are drawn from PMC5325331, “A steroid like phytochemical Antcin M is an anti-aging reagent that eliminates hyperglycemia-accelerated premature senescence in dermal fibroblasts by direct activation of Nrf2 and SIRT-1” (Oncotarget, 2016).
